{
  "source": "paper PMC9586306",
  "about": "(Proceedings of the National Academy of Sciences of the …, 2022)",
  "key": {"[1]": {"target": "IBV NA (B/Singapore/222/1979) (Influenza B virus, UniProt P16203)", "sequence (P16203 77-466 limits assumed)": "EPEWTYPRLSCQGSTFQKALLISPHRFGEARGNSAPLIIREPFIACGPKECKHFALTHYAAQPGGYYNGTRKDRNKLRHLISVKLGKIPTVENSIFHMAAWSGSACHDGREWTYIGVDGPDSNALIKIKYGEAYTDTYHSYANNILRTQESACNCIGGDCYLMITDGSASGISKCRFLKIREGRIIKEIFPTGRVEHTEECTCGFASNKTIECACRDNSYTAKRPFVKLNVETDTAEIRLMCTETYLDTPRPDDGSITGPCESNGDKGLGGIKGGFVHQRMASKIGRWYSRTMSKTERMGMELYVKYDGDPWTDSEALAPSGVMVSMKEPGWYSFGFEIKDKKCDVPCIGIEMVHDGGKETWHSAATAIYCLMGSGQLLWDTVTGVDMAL", "format": "biochemical, Influenza B virus B/Singapore/222/1979", "details": "read-out: IC50 ± SEM"}, "[2]": {"target": "A/California/04/2009 (H1N1) neuraminidase (09N1) (Influenza A virus (A/California/04/2009(H1N1)), UniProt C3W5S3)", "format": "biochemical", "details": "read-out: IC50 ± SEM"}},
  "data": [
    {"smiles": "CCC(CC)[C@H](NC(C)=O)[C@@H]1[C@H](O)[C@@H](C(=O)O)C[C@H]1N=C(N)N", "note": "[Peramivir, peramivir]", "values": [
      {"measurement": "IC50", "setting": "[1]", "result": "16.9 ± 1.94", "unit": "nM"},
      {"measurement": "IC50", "setting": "[2]", "result": "0.45 ± 0.08", "unit": "nM"}
    ]}
  ]
}
